Reference: US6585961B1, “Antimicrobial compositions” (priority 2001, dated 2003)

How the values were obtained:
[1] = Appearance and particle size of essential oil emulsion with surfactant; type: physicochemical; details: Table I; for Appearance: emulsion of essential oils with surfactant; for Estimated Particle Size: micelle of essential oils with surfactant
Text: Since there are literally thousands of surfactants, many of which fulfill these criteria, it would be a very difficult task to examine every one of them on an individual basis. […]

[2] = Hydrophile-lipophile balance (HLB) of surfactant; type: physicochemical; details: for HLB Value: surfactants (2 wt. %) found to give the desired results; for HLB: Table I
Text: An old and well-accepted method to determine functionality of surfactants is known as the hydrophile -lipophile balance (HLB). The HLB is an expression of the relative simultaneous attraction of a surfactant for water and for oil. The HLB of a surfactant determines the type of an emulsion that tends to be formed. It is an indicative of the behavior characteristics and not an indication of surfactant efficiency.
When two or more surfactants are to be blended the HLB of the combinations is easily calculated. If x is the proportion of one surfactant having an HLB of A, and the other surfactant has an HLB of B, the HLB of the combination can be expressed for all practical purposes as xA+(1−x)B. This is a straight-line relationship. If the value of this 16 or greater, then most likely the combination will be workable.

Molecule | Appearance [1] | Estimated Particle Size [1] | HLB Value [2] | HLB [2]
Cocamidopropyl betaine [Tego Betaine ZF] | transparent | ≧0.05u | – | –
CCCCCCCCCCCCOS(=O)(=O)[O-].[Na+] [Dodecyl sulfate, sodium salt] | – | – | ˜40 | –
CCCCCCCCCCCCCCCCCC(=O)OCCO [Glycol stearate LIPO EGDS, Glycol stearate] | 2 phase | very large^1 | – | 2.0
DL-2-pyrrolidone-5-carboxylic acid salt of ethyl N-cocoyl-L-arginate | – | – | >20 | –
Glyceryl dilaurate [Glyceryl dilaurate Lexemul GDL] | not dispersible | very large^1 | – | 2.4
